The nature of data set [1]: Antiproliferative activity against human U87 cells overexpressing miR-9 assessed as cell viability incubated for 48 hrs by Cell Counting Kit-8 assay. Type of data set: functional, cell-based, U-87MG ATCC. Conditions: U-87 MG. (Formazan colour is commonly taken as a measure of viable cells.)
In data set [2] the test system is PC-3. The data set can be described thus: Antiproliferative activity against human PC3 cells assessed as cell viability incubated for 48 hrs by Cell Counting Kit-8 assay. The data set is classed as functional, cell-based. Conditions: PC-3, 48 h.
The subject of data set [3] is HepG2. The data set can be described thus: Antiproliferative activity against human HepG2 cells assessed as cell viability incubated for 48 hrs by Cell Counting Kit-8 assay. As to conditions: HepG2, 48 h. Type of data set: functional, cell-based.
Data set [4] can be described thus: Inhibition of bovine brain FTase. Also on record: species or system Bos taurus.
The test system of data set [5] is THP-1. The data set can be described thus: Antitumor activity against human THP1 cells. The data set is classed as functional, cell-based.
Data set [6] concerns HCT-116. Put plainly: Antitumor activity against human HCT116 cells. Type of data set: functional, cell-based.
The subject of data set [7] is HT-29. Put plainly: Antitumor activity against human HT29 cells. The data set is classed as functional, cell-based.
Data set [8] has as its system U-937. Put plainly: Antitumor activity against human U937 cells. Type of data set: functional, cell-based.
For data set [9], the system named is HL-60. The data set can be described thus: Antitumor activity against human HL60 cells. The data set is classed as functional, cell-based.
Data set [10] relates to B16. Put plainly: Antitumor activity against mouse B-16 cells. Type of data set: functional, cell-based.
In data set [11] the test system is HeLa. The data set can be described thus: Antitumor activity against human HeLa cells. Type of data set: functional, cell-based.
Data set [12] deals with SiHa. Put plainly: Antitumor activity against human SiHa cells assessed as cell growth inhibition incubated for 5 days by MTT assay. The data set is classed as functional, cell-based. Conditions: 120 h.
In data set [13] the test system is HT-3. The data set can be described thus: Antitumor activity against human HT-3 cells assessed as cell growth inhibition incubated for 5 days by MTT assay. The data set is classed as functional, cell-based. As to conditions: HT-3, 120 h.
For data set [14], the system named is C-33-A. Put plainly: Antitumor activity against human C-33-A cells assessed as cell growth inhibition incubated for 5 days by MTT assay. Type of data set: functional, cell-based. As to conditions: 120 h.
For data set [15], the system named is HeLa. Put plainly: Antitumor activity against human HeLa cells assessed as cell growth inhibition incubated for 5 days by MTT assay. The data set is classed as functional, cell-based. As to conditions: 120 h.
Data set [16] concerns Ca-Ski. Put plainly: Antitumor activity against human Ca-Ski cells assessed as cell growth inhibition incubated for 5 days by MTT assay. As to conditions: 120 h. The data set is classed as functional, cell-based.
Data set [17] relates to L5178Y. Put plainly: Cytotoxicity against mouse L5178Y cells. Type of data set: functional.
Data set [18] concerns L5178Y. The data set can be described thus: Cytotoxicity against mouse L5178Y. Type of data set: toxicity, cell-based.
Data set [19] has as its system Pichia kudriavzevii. The data set can be described thus: Antifungal activity against Pichia kudriavzevii IFO 0590 assessed as inhibition of fungal growth incubated for 72 hrs by broth dilution method. The data set is classed as functional. In general terms: In broth dilution the organism is exposed to a series of concentrations in liquid medium.
The subject of data set [20] is Rhizopus delemar. Put plainly: Antifungal activity against Rhizopus delemar IAM 6015 assessed as inhibition of fungal growth incubated for 72 hrs by broth dilution method. Type of data set: functional.
For data set [21], the system named is Aspergillus japonicus. Put plainly: Antifungal activity against Aspergillus japonicus IAM 2016 assessed as inhibition of fungal growth incubated for 72 hrs by broth dilution method. Type of data set: functional.
For data set [22], the system named is Cyberlindnera jadinii. Put plainly: Antifungal activity against Cyberlindnera jadinii IFO 0396 assessed as inhibition of fungal growth incubated for 72 hrs by broth dilution method. Type of data set: functional. Conditions: Williopsis jadinii.
In data set [23] the test system is Rhizomucor pusillus. Put plainly: Antifungal activity against Rhizomucor pusillus IAM 6122 assessed as inhibition of fungal growth incubated for 72 hrs by broth dilution method. The data set is classed as functional.
Data set [24] deals with Saccharomyces cerevisiae. The data set can be described thus: Antifungal activity against Saccharomyces cerevisiae IFO 0304 assessed as inhibition of fungal growth incubated for 72 hrs by broth dilution method. The data set is classed as functional.
Data set [25] has as its system Penicillium chrysogenum. The data set can be described thus: Antifungal activity against Penicillium chrysogenum1AM 7106 assessed as inhibition of fungal growth incubated for 72 hrs by broth dilution method. As to conditions: 1AM 7106. The data set is classed as functional.
Data set [26] can be described thus: Toxicity in CDF1 mouse allografted with mouse […] cells assessed as lethal dose administered for 6 days ,ip. The data set is classed as cell-based. As to conditions: in vivo, time 6 day.
Data set [27] is described as follows: Inhibition of NO production in LPS stimulated mouse BV-2 cells measured after 24 hrs. As to conditions: BV-2, 24 h. Type of data set: functional, cell-based.
In data set [28] the test system is PANC-1. Put plainly: Antitumor activity against human PANC-1 cells incubated for 48 to 72 hrs by MTS Assay. The data set is classed as functional, cell-based.
Data set [29] deals with BXPC-3. The data set can be described thus: Antitumor activity against human BXPC-3 cells incubated for 48 to 72 hrs by MTS Assay. The data set is classed as functional, cell-based.
For data set [30], the system named is Capan-2. Put plainly: Antitumor activity against human Capan-2 cells incubated for 48 to 72 hrs by MTS Assay. Type of data set: functional, cell-based.
The test system of data set [31] is MCF7. Put plainly: Antitumor activity against human MCF-7 incubated for 48 hrs by MTT assay. The data set is classed as functional, cell-based. Conditions: MCF7, 48 h.
Data set [32] relates to HepG2. Put plainly: Antitumor activity against human HepG2 incubated for 48 hrs by MTT assay. The data set is classed as functional, cell-based. As to conditions: HepG2, 48 h.
The subject of data set [33] is HepG2. Put plainly: Antitumor activity against human HepG2 cells incubated for 72 hrs by SRB calorimetric assay. As to conditions: HepG2, 72 h. Type of data set: functional, cell-based.
Data set [34] concerns PC-3. Put plainly: Antitumor activity against human PC-3 cells incubated for 72 hrs by SRB calorimetric assay. Type of data set: functional, cell-based. Conditions: PC-3, 72 h. (In general: The SRB assay estimates cell density from bound dye.)
The test system of data set [35] is MCF7. Put plainly: Antitumor activity against human MCF7 cells incubated for 72 hrs by MTT assay. Type of data set: functional, cell-based. As to conditions: MCF7, 72 h.
The subject of data set [36] is A549. Put plainly: Cytotoxicity against human A549 cells incubated for 72 hrs by MTT assay. Conditions: A549, 72 h. The data set is classed as functional, cell-based.
Data set [37] concerns A549. Put plainly: Antitumor activity against human A549 cells incubated for 72 hrs by MTT assay. Type of data set: functional, cell-based. As to conditions: A549, 72 h.
Data set [38] deals with K562. Put plainly: Cytotoxicity against human K562 cells incubated for 24 hrs by CCK-8 assay. Conditions: K562, 24 h. The data set is classed as functional, cell-based.
Data set [39] has as its system K562. The data set can be described thus: Antitumor activity against human K562 cells incubated for 24 hrs by CCK-8 assay. The data set is classed as functional, cell-based. Conditions: K562, 24 h.

Values after ≈ are worked out from the molar mass of the structure shown.

As usually defined, the IC50 is the concentration at which inhibition is half-maximal. For the compound `CO[C@@H]1CC(=O)Nc2c(O)c3cc4c2[C@H]1[C@@H](/C=C/C=C/C[C@H](O)[C@H](C)[C@@H](OC(=O)[C@@H](C)NC(=O)C1CCCCC1)/C(C)=C\CC3)O4`, the IC50 in data set [1], in data set [2] and in data set [3] was > 10000 nM throughout.
Regarding `CO[C@H]1/C=C/C=C/C=C/C[C@H](OC(=O)[C@@H](C)NC(=O)C2=CCCCC2)[C@H](C)[C@@H](O)/C(C)=C\CCc2cc(O)cc(c2O)NC(=O)C1`, the IC50 in data set [4] was determined as 1.2 µg/mL (≈ 1.88 µM).
On the same count and under the same terms, to `C/C=C(\C)C(=O)N[C@H](C)C(=O)O[C@H]1C/C=C/C=C/C=C/[C@H](OC)CC(=O)Nc2cc(O)cc(c2O)CC/C=C(/C)[C@H](O)[C@H]1C` belongs 0.6 µg/mL (≈ 0.982 µM).
With `CO[C@H]1/C=C/C=C/C=C/C[C@H](OC(=O)C2(NC(=O)C3=CCCCC3)CC2)[C@H](C)[C@@H](O)/C(C)=C\CCc2c(O)c(cc3c2SCC(=O)N3)NC(=O)C1`, the half-maximal inhibitory concentration (IC50) in data set [5], in data set [6], in [7], in [8], in [9] and in data set [10] was 300 nM throughout. This compound also returned an IC50 in data set [11] of 300 nM.
As for `CO[C@H]1/C=C/C=C/C=C/C[C@H](O)[C@H](C)[C@@H](OC(=O)[C@@H](C)NC(=O)C2CCCCC2)/C(C)=C\CCC2=C(O)C(=O)C=C(NC(=O)C1)C2=O`, the IC50 in [12], in [13], in data set [14], in data set [15] and in [16] was 450 nM each time.
By LD50 is commonly meant the dose at which mortality reaches 50%. Consider `CO[C@H]1/C=C/C=C/C=C/C[C@H](OC(=O)[C@@H](C)NC(=O)C2CCCCC2)[C@H](C)[C@@H](O)/C(C)=C\CCC2=CC(=O)C=C(NC(=O)C1)C2=O`, for which the MIC in data set [17] is 0.11 µg/mL (≈ 0.173 µM); in [18], 1.25 µM (≈ 0.796 µg/mL); in [19], 4 µg/mL (≈ 6.28 µM); in data set [20], 4 µg/mL (≈ 6.28 µM); in data set [21], 4 µg/mL (≈ 6.28 µM); in data set [22], 4 µg/mL (≈ 6.28 µM). The MIC in data set [23], in [24] and in data set [25] was 4 µg/mL (≈ 6.28 µM) each time. In addition, in [26], the LD50 at 144 h amounted to 56 mg/kg.
The term EC50 denotes the midpoint of the concentration-response curve. In data set [27], `CO[C@H]1/C=C/C=C/C=C/C[C@H](O)[C@H](C)[C@@H](OC(=O)[C@@H](C)NC(=O)C2CCCCC2)/C(C)=C\CCc2cc(O)cc(c2)NC(=O)C1` came in with an EC50 of 292 nM. Besides, the IC50 in data set [28], in data set [29] and in data set [30] was > 10000 nM each time.
Regarding `CO[C@H]1/C=C/C=C/C=C/C[C@H](OC(=O)[C@@H](C)NC(=O)C2CCC2)[C@H](C)[C@@H](O)/C(C)=C\CCc2cc(O)cc(c2)NC(=O)C1`, the IC50 in [31] and in data set [32] was 7330 nM throughout.
As to `CCCC(=O)N[C@H](C)C(=O)O[C@H]1C/C=C/C=C/C=C/[C@H](OC)CC(=O)Nc2cc(O)cc(c2)CC/C=C(/C)[C@H](O)[C@H]1C`, the IC50 in data set [33], in data set [28], in [34], in data set [29] and in [30] was 2040 nM throughout.
As to `CO[C@H]1/C=C/C=C/C=C/C[C@H](OC(=O)[C@@H](C)NC(=O)C2CCCCC2)[C@H](C)[C@@H](O)/C(C)=C\CCC2=C(O)C(=O)C=C(NC(=O)C1)C2=O`, the IC50 in [12], in data set [13], in data set [14], in data set [15] and in [16] was 70 nM each time.
On to `CO[C@H]1/C=C/C=C/C=C/C[C@H](OC(=O)[C@@H](C)NC(C)=O)[C@H](C)[C@@H](O)/C(C)=C\CCc2cc(O)cc(c2)NC(=O)C1`, for which the IC50 in data set [35] is > 10000 nM; in [36], 15000 nM; in data set [37], > 10000 nM; in data set [38] it was 23000 nM; in data set [39], > 10000 nM.

The values are drawn from ChEMBL document CHEMBL5247589, “Natural occurrence, bioactivity, and biosynthesis of triene-ansamycins” (Eur J Med Chem, 2022).
